Experiments:
ACHN = conditions: for GI50: read-out: Median Growth Inhibitory Concentration (GI50), Renal Cancer, 48 hours
[1] = system: Tissue Factor (TF) production by human melanoma cell line RPMI-7951; assay: TF ELISA, RPMI-7951; format: cell-based
Protocol: (§1) IMUBIND Tissue Factor ELISA Kit (American Diagnostica Inc, Greenwich, Conn.) was used to determine TF concentration in each sample. The ELISA was carried out according to manufacturer's procedure.

[2] = system: Vascular Endothelial Growth Factor (VEGF) production by human prostate cancer cell line DU-145; assay: VEGF ELISA, DU-145; format: cell-based; conditions: for VEGF (% of DMSO): DMSO = 100%
[3] = system: Vascular Endothelial Growth Factor (VEGF) production by human prostate cancer cell line PC-3; assay: VEGF ELISA, PC-3; format: cell-based; conditions: for VEGF (% of DMSO): DMSO = 100%
[4] = system: Tissue Factor (TF) production by human prostate cancer cell line DU-145; assay: TF ELISA, DU-145; format: cell-based; conditions: 20 μM; for TF (% of DMSO): DMSO = 100%; for TF: mean of triplicate and S.D., DMSO 7699 ± 406
Protocol: (§2) Cells were treated with 1% Triton X-100 in PBS and left overnight at 4° C. overnight to solubilize TF. […] IMUBIND Tissue Factor ELISA Kit (American Diagnostica Inc, Greenwich, Conn.) was used to determine TF concentration in each sample. The ELISA was carried out according to manufacturer's procedure.

[5] = system: Tissue Factor (TF) production by human prostate cancer cell line PC-3; assay: TF ELISA, PC-3; format: cell-based; conditions: 20 μM; for TF (% of DMSO): DMSO = 100%; for TF: mean of triplicate and S.D., DMSO 203 ± 6
Protocol: as §2

[6] = system: Tissue Factor (TF) production by human breast cancer cell line MDA-MB-231; assay: TF ELISA, MDA-MB-231; format: cell-based
Protocol: as §1

RPMI 7951 = assay: Emory Laboratory Cell Screen, Neutral Red, RPMI 7951; format: cell-based, human; conditions: Homo sapiens, RPMI 7951, Melanoma, 72 hours, read-out: Median Growth Inhibitory Concentration (GI50)
Protocol: (§3) Human tumor and endothelial cell lines were treated for 72 hours with compounds at a minimum of four concentrations between 0.1 μM-40 μM. Neutral Red assay was used to calculate cell viability.

MDA-MB-231 = assay: Emory Laboratory Cell Screen, Neutral Red, MDA-MB-231; format: cell-based, human; conditions: Homo sapiens, MDA-MB-231, Breast Cancer, 72 hours, read-out: Median Growth Inhibitory Concentration (GI50)
Protocol: as §3

MDA-MB-435 = assay: Emory Laboratory Cell Screen, Neutral Red, MDA-MB-435; format: cell-based, human; conditions: Homo sapiens, MDA-MB-435, Breast Cancer, 72 hours, read-out: Median Growth Inhibitory Concentration (GI50)
Protocol: as §3

HUVECS = assay: Emory Laboratory Cell Screen, Neutral Red, HUVECS; format: cell-based, human; conditions: Homo sapiens, HUVEC, 72 hours, read-out: Median Growth Inhibitory Concentration (GI50)
Protocol: as §3

[7] = system: Human tumor and endothelial cell lines; assay: Emory Laboratory Cell Screen, mean over cell lines; format: cell-based; conditions: Homo sapiens, Endothelial cell; Mean over the Emory cell lines; 72 hours; read-out: Median Growth Inhibitory Concentration (GI50), Mean
Protocol: as §3

[8] = Table 5, 5 μM, DMSO control 7054
[9] = Table 5, 20 μM, DMSO control 7054
[10] = 20 μM, mean of triplicate and S.D., DMSO 18760 ± 2633
[11] = Table 4, 20 μM, mean of triplicate and S.D.
[12] = 20 μM, mean of triplicate and S.D., DMSO 2103 ± 100

Row | Molecule | GI50 (ACHN) | TF ([1]; 5 μM, DMSO = 100) | TF ELISA ([1]; 5 μM, DMSO control 7054) | TF ([1]; 20 μM, DMSO = 100) | TF ELISA ([1]; 20 μM, DMSO control 7054) | TF [1, 8] | TF [1, 9] | VEGF (% of DMSO) ([2]; 20 μM) | VEGF [2, 10] | VEGF ([2]; Table 4, 20 μM, DMSO = 100) | VEGF [2, 11] | VEGF (% of DMSO) ([3]; 20 μM) | VEGF [3, 12] | VEGF ([3]; Table 4, 20 μM, DMSO = 100) | VEGF [3, 11] | TF (% of DMSO) [4] | TF [4] | TF (% of DMSO) [5] | TF [5] | GI50 (RPMI 7951) | also measured
1 | N.N.[Cl][Pt][Cl] [Cisplatin, reference compound] | 0.5 µM |  |  |  |  |  |  |  |  |  |  |  |  |  |  |  |  |  |  |  | 
2 | O=C1C(=Cc2ccccc2O)COCC1=Cc1ccccc1O [EF25, 3,5-Bis(2-hyrdoxybenzylidene)tetrahydro4-H-pyran4-one] | 1.5 µM |  |  |  |  |  |  |  |  |  |  |  |  |  |  |  |  |  |  |  | CC50 (ACHN; read-out: Median Lethal Concentration (LC50), Renal Cancer, 48 hours, SRB assay): 18.2 µM
3 | COc1cc(/C=C/C(=O)CC(=O)/C=C/c2ccc(O)c(OC)c2)ccc1O [Curcumin] |  | 126% | 7974 pg/ml/well | 15% | 1026 pg/ml/well | 8871 pg/mL | 1026 pg/mL | (96%) | 17957 ± 1910 pg/mL | 96% | 17957 ± 1910 pg/mL | (99%) | 2088 ± 103 pg/mL | 99% | 2088 ± 103 pg/mL | (93%) | 7134 ± 301 pg/mL | (68%) | 138 ± 10 pg/mL | 6.3 µM | TF ([6]; 5 μM, DMSO = 100): 100%; TF ([6]; 5 μM, DMSO control 45753): 45814 pg/mL; TF ([6]; 10 μM, DMSO = 100): 98%; TF ([6]; 10 μM, DMSO control 45753): 44727 pg/mL; GI50 (MDA-MB-231): 11.6 µM; GI50 (MDA-MB-435): 16.3 µM; GI50 (HUVECS): 25 µM; GI50 [7]: 14.8 µM
4 | C(=C\c1ccccc1)/S/C=C/c1ccccc1 [EF15] | > 100 µM | 106% | 7506 pg/ml/well | 109% | 7663 pg/ml/well | 7506 pg/mL | 7663 pg/mL |  |  |  |  |  |  |  |  |  |  |  |  |  | TF ([6]; 20 μM, DMSO = 100): 101%; TF ([6]; 20 μM, DMSO control 45753): 46394 pg/mL
5 | 3,5-Bis(2-hydroxybenzylidene)-sulfone [EF11] | 41 µM |  |  |  |  |  |  |  |  |  |  |  |  |  |  |  |  |  |  |  | 
6 | O=C1C(=Cc2ccccc2O)CCCC1=Cc1ccccc1O [EF4, 2,6Bis(2-hydroxybenzylidene)cyclohexanone] |  |  |  |  |  |  |  | (55%) | 10274 ± 4467 pg/mL | 55% | 10274 ± 4467 pg/mL | (2%) | 48 ± 83 pg/mL | 2% | 48 ± 83 pg/mL | (67%) | 5180 ± 420 pg/mL | (16%) | 33 ± 7 pg/mL | 3.6 µM | GI50 [7]: 3.6 µM

— patent publication US7371766B2, “Curcumin analogs with anti-tumor and anti-angiogenic properties” (Emory University, priority 1999, dated 2008)
